The target in the series is ATP-binding cassette sub-family C member 2 (Rattus norvegicus, UniProt Q63120). As to the kind of experiment: TP_TRANSPORTER: decrease in biliary excretion in isolated perfused liver from TR- rat. The format is functional.
Chain of ATP-binding cassette sub-family C member 2 (Q63120 whole entry, the tested form may be a part): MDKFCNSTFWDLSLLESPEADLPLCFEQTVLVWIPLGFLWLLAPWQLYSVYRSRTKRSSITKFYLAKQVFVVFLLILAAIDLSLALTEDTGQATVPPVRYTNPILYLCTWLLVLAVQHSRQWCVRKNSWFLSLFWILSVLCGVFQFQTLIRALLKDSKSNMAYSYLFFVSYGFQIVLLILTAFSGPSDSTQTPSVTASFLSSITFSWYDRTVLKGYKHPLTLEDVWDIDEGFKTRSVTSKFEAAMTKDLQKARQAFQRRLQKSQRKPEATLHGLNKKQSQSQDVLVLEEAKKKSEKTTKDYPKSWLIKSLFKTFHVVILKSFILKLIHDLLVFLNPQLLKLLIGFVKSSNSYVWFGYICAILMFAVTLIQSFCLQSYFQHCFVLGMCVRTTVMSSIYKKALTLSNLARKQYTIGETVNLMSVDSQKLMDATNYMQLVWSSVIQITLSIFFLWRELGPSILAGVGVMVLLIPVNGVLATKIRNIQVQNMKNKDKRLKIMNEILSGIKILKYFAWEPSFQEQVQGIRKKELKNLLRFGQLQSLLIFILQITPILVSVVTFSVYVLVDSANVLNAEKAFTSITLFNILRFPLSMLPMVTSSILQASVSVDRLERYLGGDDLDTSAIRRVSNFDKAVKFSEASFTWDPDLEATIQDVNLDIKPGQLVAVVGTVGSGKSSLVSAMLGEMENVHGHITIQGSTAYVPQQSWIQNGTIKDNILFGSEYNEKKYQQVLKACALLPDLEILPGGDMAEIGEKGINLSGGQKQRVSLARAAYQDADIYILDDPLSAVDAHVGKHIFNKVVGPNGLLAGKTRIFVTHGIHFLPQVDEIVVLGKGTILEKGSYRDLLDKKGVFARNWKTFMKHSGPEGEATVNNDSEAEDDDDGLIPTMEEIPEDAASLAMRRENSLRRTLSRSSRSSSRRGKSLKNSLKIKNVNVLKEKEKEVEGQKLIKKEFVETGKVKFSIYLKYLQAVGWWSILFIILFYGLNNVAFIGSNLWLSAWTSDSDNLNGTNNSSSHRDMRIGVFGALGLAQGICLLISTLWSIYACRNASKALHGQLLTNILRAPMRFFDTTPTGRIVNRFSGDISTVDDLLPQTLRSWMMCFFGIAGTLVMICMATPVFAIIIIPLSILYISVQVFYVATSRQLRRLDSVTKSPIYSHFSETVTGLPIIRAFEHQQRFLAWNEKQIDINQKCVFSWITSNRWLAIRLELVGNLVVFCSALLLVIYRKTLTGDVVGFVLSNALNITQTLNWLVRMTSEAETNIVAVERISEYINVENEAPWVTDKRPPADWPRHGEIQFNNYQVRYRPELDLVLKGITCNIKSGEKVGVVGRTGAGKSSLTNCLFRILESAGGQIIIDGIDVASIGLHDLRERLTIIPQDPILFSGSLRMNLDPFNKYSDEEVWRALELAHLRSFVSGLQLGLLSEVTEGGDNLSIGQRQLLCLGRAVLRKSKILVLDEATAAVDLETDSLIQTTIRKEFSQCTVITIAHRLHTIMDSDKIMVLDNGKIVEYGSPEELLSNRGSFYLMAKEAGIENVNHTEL

With `CC(=O)Nc1ccccc1.O=S(=O)(O)O`, the Activity result is “substrate [+]”.
For the compound `CC(=O)Nc1ccc(O[C@@H]2O[C@H](C(=O)O)[C@@H](O)[C@H](O)[C@H]2O)cc1` [ACETAMINOPHEN GLUCURONIDE], the Activity result was “substrate [+]”.

(Values after ChEMBL document CHEMBL2074334, “Altered hepatobiliary disposition of acetaminophen glucuronide in isolated perfused livers from multidrug resistance-associated protein 2-deficient TR(-) rats” (J Pharmacol Exp Ther, 2000).)
